# Laboratory results reported in US4885239A, “Rapid differentiation of bacteria using polyether antibiotics” (Eastman Kodak Company, priority 1986, dated 1989).
# Tests used:
# S. faecalis = test: dye formation from RIND VII in presence of calimycin, S. faecalis; assay type: cell-based, Streptococcus faecalis (clinical urine isolate); set-up: key: 0: no dye formation; +/-: faint dye formation; 1+: light dye formation; 2+: moderate dye formation; 3+: strong dye formation; 4+: very strong dye formation; conditions: calimycin 10^-3 molar, calcium chloride
# Method: Streptococcus faecalis was isolated from a clinical urine specimen obtained from a local hospital,
# (§1) Bacterial suspensions were prepared by growing the cells in BHI to stationary phase overnight at 37° C. P. aeruginosa was grown with agitation. About 40 ml of overnight cultures were centrifuged, decanted and washed once with 0.05 molar potassium phosphate buffer or 0.05 molar N-2-hydroxyethylpiperazine-N'-2-ethanesulfonic acid (HEPES) buffer, pH 7.8, and resuspended in buffer.
# A dispersion containing a RIND compound was prepared by dissolving RIND VII from Table II above in N,N-dimethylformamide (DMF) at 16 mg compound per ml of solvent. […]
# (§2) TERGITOL 7 anionic surfactant was used to differentiate viable bacteria according to the prior art method. […] The amount of dye formed was then determined visually and graded as follows: 0 indicates no dye formation, +/- indicates faint dye formation, 1+ indicates light dye formation, 2+ indicates moderate dye formation, 3+ indicates strong dye formation, and 4+ indicates very strong dye formation.
# (§3) Calimycin, a polyether antibiotic, was similarly used with RIND VII in the differentiation of bacteria. Assays were performed as described above, except that 25 μl of 1 molar calcium chloride solution was added to each test solution and the P. aeruginosa response was measured in the presence of 10% yeast extract as the carbon source instead of glucose. […]
# S. aureus (gram +) [1] = test: change in relative fluorescence with water-compatible RIND XXXV (Example 4), S. aureus; assay type: cell-based, Staphylococcus aureus (ATCC 25923); conditions: 37° C., without antibiotic 2667
# Method: (§4) gram-negative bacteria Enterobacter cloacae (ATCC 23355), Escherichia coli (ATCC 25922), Proteus vulgaris (ATCC 13315), Klebsiella pneumoniae (ATCC 13883) and Pseudomonas aeruginosa (ATCC 27853), and gram-positive bacteria Staphylococcus aureus (ATCC 25923) and Streptococcus pyogenes (ATCC 19615), and brain heart infusion (BHI) broth from Difco Laboratories (Detroit, Mich.),
# as §1
# (§5) A dispersion containing a RIND compound was prepared by dissolving RIND VII from Table II above in N,N-dimethylformamide (DMF) at 16 mg compound per ml of solvent. An aliquot (250 μl) of the resulting solution was added to 500 μl of TRITON X-100 surfactant. This mixture was then added dropwise with stirring to 25 ml of 0.05 molar HEPES buffer. A solution containing a water-compatible RIND compound XXXV was prepared by dissolving the compound (16 mg/ml) in N,N-dimethylformamide which had been acidified with a 0.1% sulfuric acid solution.
# (§6) A solution was prepared from the following components: 100 μl RIND XXXV solution (16 mg/ml acidified N,N-dimethylformamide), 200 μl glucose solution (10% in water), 200 μl trimethyl-1,4-benzoquinone ETA solution (1.5 mg/ml methanol) and 10 ml HEPES buffer.
# (§7) Test solutions were prepared from the following reagents: 50 μl HEPES buffer, 50 μl polyether antibiotic A23187 (free acid, 0.01 molar in methanol), 10 μl calcium chloride solution (1 molar) (serial dilutions of buffer and antibiotic were performed to obtain various antibiotic concentrations), 50 μl of the appropriate cell suspensions (E. coli, about 10^8 cells/ml and S. aureus, about 10^8 cells/ml) and 200 μl of the RIND solution. Control solutions were prepared as described in Examples 2 and 3.
# (§8) Relative fluorescence was measured using a standard spectrophotometer modified to read at excitation of 540 nm and emission of 620 nm. The change (Δ) in relative fluorescence was determined after 30 minutes at 37° C. for several concentration levels of antibiotic.
# S. pyogenes = test: dye formation from RIND VII in presence of calimycin, S. pyogenes; assay type: cell-based, Streptococcus pyogenes (ATCC 19615); set-up: key: 0: no dye formation; +/-: faint dye formation; 1+: light dye formation; 2+: moderate dye formation; 3+: strong dye formation; 4+: very strong dye formation; conditions: calimycin 10^-3 molar, calcium chloride
# Method: as §4
# (§9) Bacterial suspensions were prepared by growing the cells in BHI to stationary phase overnight at 37° C. P. aeruginosa was grown with agitation. […]
# as §2, §3
# S. aureus (gram +) [2] = test: inhibition of the reduction of RIND XXXV in dry analytical element (Example 6), S. aureus; assay type: cell-based, Staphylococcus aureus (ATCC 25923); conditions: calcium chloride, 30 minutes, 37° C.
# E. coli (gram -) [3] = test: inhibition of the reduction of RIND XXXV in dry analytical element (Example 6), E. coli; assay type: cell-based, Escherichia coli (ATCC 25922); conditions: calcium chloride, 30 minutes, 37° C.
# Method: as §4, §9
# Optical density readings (OD) were made at 635 nm at 0 minutes and after incubation at 37° C. for 30 minutes for all solutions, and the change (ΔOD) was determined. […] The corrected percent inhibition was calculated by dividing the difference between ΔOD obtained from a Control test without antibiotic and the ΔOD of the test, by the ΔOD of the Control without antibiotic. All readings were corrected by subtracting readings of the appropriate background control. […]
# The relative fluorescence (excitation 540 nm, emission 620 nm) was measured using a standard spectrophotometer, and the change in relative fluorescence was determined after 30 minutes at 37° C. […]
# E. coli (gram -) [4] = test: change in relative fluorescence with water-compatible RIND XXXV (Example 4), E. coli; assay type: cell-based, Escherichia coli (ATCC 25922); conditions: 37° C., without antibiotic 2539
# Method: as §4, §1, §5, §6, §7, §8
smiles,measurement,setting,value
"CNc1ccc2oc(C[C@H]3O[C@@]4(CC[C@H]3C)O[C@H]([C@H](C)C(=O)c3ccc[nH]3)[C@H](C)C[C@H]4C)nc2c1C(=O)O [calimycin, Calimycin]",dye formation,S. faecalis; 15 Minutes,+/-
same,dye formation,S. faecalis; 30 Minutes,+/-
same,Δ Relative Fluorescence after 30 Min.,S. aureus (gram +) [1]; antibiotic 1 × 10^-4 molar,409
same,Δ Relative Fluorescence after 30 Min.,S. aureus (gram +) [1]; antibiotic 2 × 10^-4 molar,362
same,Δ Relative Fluorescence after 30 Min.,S. aureus (gram +) [1]; antibiotic 4 × 10^-4 molar,290
same,Δ Relative Fluorescence after 30 Min.,S. aureus (gram +) [1]; antibiotic 8 × 10^-4 molar,345
same,dye formation,S. pyogenes; 15 Minutes,0
same,dye formation,S. pyogenes; 30 Minutes,0
same,Corrected Percent Inhibition,S. aureus (gram +) [2],70%
same,Corrected Percent Inhibition,E. coli (gram -) [3],11.5%
same,Δ Relative Fluorescence after 30 Min.,E. coli (gram -) [4]; antibiotic 1 × 10^-4 molar,2804
same,Δ Relative Fluorescence after 30 Min.,E. coli (gram -) [4]; antibiotic 2 × 10^-4 molar,2540
same,Δ Relative Fluorescence after 30 Min.,E. coli (gram -) [4]; antibiotic 4 × 10^-4 molar,2338
same,Δ Relative Fluorescence after 30 Min.,E. coli (gram -) [4]; antibiotic 8 × 10^-4 molar,2411
